Experimental data as given in US20120214862A1, “MODULATION OF FACTOR 7 EXPRESSION” (ISIS Pharmaceuticals, Inc., priority 2009, published 2012).
In the oligonucleotide strings, read from the 5' end, every base follows the letter of its sugar. An asterisk marks phosphorothioate; unmarked linkages are phosphodiester. Other units and linkages are bracketed, terminal groups are in braces. A string of capitals states the bases alone. e = 2'-O-(2-methoxyethyl) (MOE); [5mC] = 5-methylcytosine; d = 2'-deoxy (DNA)

Test system: human Factor 7 mRNA
Assay: Antisense inhibition of human Factor 7 mRNA in HepB3 cells, lipofectin, 50 nM, real-time RT-PCR
Assay type: cell-based
Conditions: for % Inhibition (human Factor 7 mRNA): 50 nM, ~24 h
Procedure, shortened: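 Percent inhibition of Factor 7 mRNA, relative to untreated control, comes from real-time RT-PCR with RIBOGREEN normalization, using primer probe set RTS 2927 in some runs. RNA was taken roughly 24 h after lipofectin delivery of 50 nM oligonucleotide into HepB3 cells.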

[1] = Example 4, HepB3 cells, lipofectin, relative to untreated control
[2] = HepB3 cells, lipofectin, 50 nM antisense oligonucleotide, approximately 24 hours, primer probe set RTS 2927, relative to untreated control
[3] = Example 1, HepB3 cells, lipofectin, relative to untreated control cells
[4] = HepB3 cells, gapmers (5-10-5, 3-14-3, 2-13-5 MOE) targeted to nucleobases 4868 to 4899 of SEQ ID NO: 1
[5] = HepB3 cells, gapmers targeted to nucleobases 11830 to 11869 of SEQ ID NO: 1 (Table 9)
[6] = HepB3 cells, gapmers targeted to nucleobases 13760 to 13789 of SEQ ID NO: 1 (Table 10)

With “422193 (antisense eT*eG*eA*dG*d[5mC]*dG*d[5mC]*dG*dG*dA*dA*dG*dA*dA*dG*dG*dG*eA*e[5mC]*eG) [compound 422193]” the “% Inhibition (human Factor 7 mRNA)” value [1] was 6%.
With “416534 (antisense eA*eT*eG*e[5mC]*eA*d[5mC]*dA*d[5mC]*d[5mC]*dA*dG*dG*dG*d[5mC]*dT*eG*e[5mC]*eT*eG*eG) [compound 416534]” the “% Inhibition of human Factor 7 mRNA levels” value [2] was 32%.
“407620 (antisense eA*eG*eG*eA*e[5mC]*d[5mC]*dT*dG*d[5mC]*d[5mC]*dA*dT*dG*dG*dA*e[5mC]*eA*e[5mC]*eT*e[5mC]) [compound 407620]” was tested, and the “% Inhibition (human Factor 7 mRNA)” value [3] was 79%.
With “407894 (antisense eG*eT*eT*e[5mC]*e[5mC]*dG*dG*d[5mC]*d[5mC]*d[5mC]*dT*d[5mC]*dG*dA*dA*eG*eG*e[5mC]*eA*eG) [compound 407894]” the “% Inhibition (human Factor 7 mRNA)” value [3] was 77%.
“407637 (antisense eG*eT*eA*e[5mC]*eT*dG*dG*dG*dA*dG*dA*d[5mC]*d[5mC]*d[5mC]*dT*eG*eG*eT*eG*eT) [compound 407637]” was tested, and the “% Inhibition (human Factor 7 mRNA)” value [3] was 71%.
With “407934 (antisense e[5mC]*eT*eG*eA*eA*dG*dT*dG*dA*dA*dG*dA*dT*dG*dA*eT*eA*eA*eT*eG) [compound 407934]” the “% Inhibition (human Factor 7 mRNA)” value [3] was 45%.
For “407598 (antisense e[5mC]*e[5mC]*eA*eT*eG*dA*dT*dG*dA*dA*dA*dT*d[5mC]*dT*d[5mC]*eT*eG*e[5mC]*eA*eG) [compound 407598]”, the “% Inhibition (human Factor 7 mRNA)” value [3] was 72%.
In the case of “416468 (antisense eT*eG*eG*eG*eA*dG*dA*d[5mC]*d[5mC]*d[5mC]*dT*dG*dG*dT*dG*eT*eA*e[5mC]*eA*e[5mC]) [compound 416468]”, the “% Inhibition of human Factor 7 mRNA levels” value [2] is reported as 46%.
For “416557 (antisense eT*e[5mC]*e[5mC]*e[5mC]*eA*dG*dG*d[5mC]*dA*dA*dA*dG*d[5mC]*dT*dG*e[5mC]*eT*e[5mC]*eA*eG) [compound 416557]”, the “% Inhibition of human Factor 7 mRNA levels” value [2] was 56%.
With “407636 (antisense eG*e[5mC]*eA*eG*e[5mC]*d[5mC]*d[5mC]*dT*dG*dG*d[5mC]*d[5mC]*d[5mC]*d[5mC]*dA*eG*e[5mC]*eT*eG*eA) [compound 407636]” the “% Inhibition (human Factor 7 mRNA)” value [3] was 75%.
“422220 (antisense e[5mC]*e[5mC]*e[5mC]*dG*dA*dG*dT*dT*d[5mC]*dT*dG*d[5mC]*dA*dG*dG*dA*dG*e[5mC]*eG*eG) [compound 422220]” was tested, and the “% Inhibition of human Factor 7 mRNA levels” value [4] was 59%.
For “422145 (antisense eG*e[5mC]*e[5mC]*e[5mC]*eG*dA*dG*dT*dT*d[5mC]*dT*dG*d[5mC]*dA*dG*eG*eA*eG*e[5mC]*eG) [compound 422145]”, the “% Inhibition of human Factor 7 mRNA levels” value [4] was 57%.
“422283 (antisense e[5mC]*eA*dG*d[5mC]*dA*dG*d[5mC]*d[5mC]*dT*dG*dA*dG*dG*d[5mC]*d[5mC]*eA*eG*e[5mC]*eA*eG) [compound 422283]” was tested, and the “% Inhibition of human Factor 7 mRNA levels” value (HepB3 cells, gapmers targeted to nucleobases 14707 to 14732 of SEQ ID NO: 1 (Table 11)) was 50%.
For “416467 (antisense e[5mC]*e[5mC]*e[5mC]*eT*eG*dG*d[5mC]*d[5mC]*d[5mC]*d[5mC]*dA*dG*d[5mC]*dT*dG*eA*e[5mC]*eG*eA*eT) [compound 416467]”, the “% Inhibition of human Factor 7 mRNA levels” value [2] was 55%.
“422285 (antisense eG*e[5mC]*dA*d[5mC]*dA*d[5mC]*dA*dT*dG*dG*dA*dG*dT*d[5mC]*dA*eG*e[5mC]*eA*eT*e[5mC]) [compound 422285]” was tested, and the “% Inhibition (human Factor 7 mRNA)” value (Example 6 microwalk, nucleobases 15098 to 15122 of SEQ ID NO: 1, HepB3, lipofectin) was 39%.
For “407668 (antisense eG*eA*eA*eG*e[5mC]*d[5mC]*dT*dT*dA*d[5mC]*d[5mC]*dT*dG*d[5mC]*d[5mC]*eA*eT*eG*eG*eA) [compound 407668]”, the “% Inhibition (human Factor 7 mRNA)” value [3] was 54%.
For “422232 (antisense eG*eT*d[5mC]*dA*dG*dG*dG*d[5mC]*dT*dG*dG*dT*dT*dT*dT*eG*eG*eA*eG*eG) [compound 422232]”, the “% Inhibition of human Factor 7 mRNA levels” value [5] was 41%.
With “407891 (antisense e[5mC]*eA*eT*eG*eG*dA*d[5mC]*dT*dT*dG*dA*dG*dG*d[5mC]*dA*e[5mC]*eA*e[5mC]*eT*eG) [compound 407891]” the “% Inhibition (human Factor 7 mRNA)” value [3] was 66%.
For “416457 (antisense eG*eG*eA*eT*eG*dA*dT*dG*dA*d[5mC]*d[5mC]*dT*dG*d[5mC]*dG*e[5mC]*e[5mC]*eA*e[5mC]*e[5mC]) [compound 416457]”, the “% Inhibition of human Factor 7 mRNA levels” value [2] was 48%.
In the case of “422272 (antisense eA*e[5mC]*dT*dG*dA*dG*d[5mC]*dG*d[5mC]*dG*dG*dA*dA*dG*dA*eA*eG*eG*eG*eA) [compound 422272]”, the “% Inhibition (human Factor 7 mRNA)” value [1] is reported as 12%.
With “416478 (antisense eG*eT*e[5mC]*eT*e[5mC]*d[5mC]*dA*dG*d[5mC]*dA*dA*dT*dG*dA*dA*eG*eG*e[5mC]*eA*eG) [compound 416478]” the “% Inhibition of human Factor 7 mRNA levels” value [2] was 44%.
“416487 (antisense eG*e[5mC]*eA*eG*eG*dT*dG*d[5mC]*dT*d[5mC]*d[5mC]*d[5mC]*dA*dG*dG*eG*eT*e[5mC]*eT*e[5mC]) [compound 416487]” was tested, and the “% Inhibition of human Factor 7 mRNA levels” value [2] was 39%.
In the case of “422255 (antisense eA*e[5mC]*d[5mC]*d[5mC]*dG*d[5mC]*d[5mC]*dG*dG*d[5mC]*dT*d[5mC]*dT*dG*d[5mC]*eT*e[5mC]*eA*eT*e[5mC]) [compound 422255]”, the “% Inhibition of human Factor 7 mRNA levels” value [6] is reported as 30%.
With “422179 (antisense e[5mC]*eA*e[5mC]*d[5mC]*d[5mC]*dG*d[5mC]*d[5mC]*dG*dG*d[5mC]*dT*d[5mC]*dT*dG*d[5mC]*dT*e[5mC]*eA*eT) [compound 422179]” the “% Inhibition of human Factor 7 mRNA levels” value [6] was 43%.
In the case of “416463 (antisense eT*eG*e[5mC]*eT*eG*d[5mC]*dA*dG*dG*d[5mC]*dA*dG*dT*d[5mC]*d[5mC]*eT*eG*eG*eG*eT) [compound 416463]”, the “% Inhibition of human Factor 7 mRNA levels” value [2] is reported as 39%.
In the case of “422247 (antisense eG*e[5mC]*dT*dG*dA*dG*dG*dA*dG*dA*d[5mC]*dA*dA*dT*dG*eG*eT*e[5mC]*eA*eG) [compound 422247]”, the “% Inhibition of human Factor 7 mRNA levels” value [5] is reported as 36%.
For “422127 (antisense eT*eA*e[5mC]*eT*eG*dA*dG*d[5mC]*dG*d[5mC]*dG*dG*dA*dA*dG*eA*eA*eG*eG*eG) [compound 422127]”, the “% Inhibition (human Factor 7 mRNA)” value [1] was 17%.
With “416531 (antisense eA*eG*eA*eT*eG*dA*d[5mC]*d[5mC]*dA*dG*d[5mC]*dA*dG*dG*dA*eA*eG*e[5mC]*e[5mC]*eT) [compound 416531]” the “% Inhibition of human Factor 7 mRNA levels” value [2] was 19%.
For “422226 (antisense e[5mC]*eA*dT*dG*dG*dT*dG*dA*dT*dG*d[5mC]*dT*dT*d[5mC]*dT*eG*eA*eA*eT*eT) [compound 422226]”, the “% Inhibition of human Factor 7 mRNA levels” value (HepB3 cells, gapmers targeted to nucleobases 15188 to 15211 of SEQ ID NO: 1 (Table 13)) was 41%.
In the case of “422128 (antisense eT*eT*eA*e[5mC]*eT*dG*dA*dG*d[5mC]*dG*d[5mC]*dG*dG*dA*dA*eG*eA*eA*eG*eG) [compound 422128]”, the “% Inhibition (human Factor 7 mRNA)” value [1] is reported as 27%.
With “407608 (antisense eT*eA*eT*eA*eG*dG*dA*d[5mC]*dT*dG*dG*dA*dG*d[5mC]*dT*eG*eG*eT*e[5mC]*e[5mC]) [compound 407608]” the “% Inhibition (human Factor 7 mRNA)” value [3] was 13%.
For “407890 (antisense e[5mC]*eA*eG*eG*eG*dA*dG*d[5mC]*d[5mC]*d[5mC]*dG*dG*d[5mC]*d[5mC]*dG*e[5mC]*eA*eG*e[5mC]*eT) [compound 407890]”, the “% Inhibition (human Factor 7 mRNA)” value [3] was 60%.
For “416488 (antisense e[5mC]*eA*eG*eG*eT*d[5mC]*d[5mC]*dT*d[5mC]*d[5mC]*d[5mC]*dA*d[5mC]*dT*dG*e[5mC]*eA*eG*e[5mC]*e[5mC]) [compound 416488]”, the “% Inhibition of human Factor 7 mRNA levels” value [2] was 41%.
With “422146 (antisense eA*eG*e[5mC]*e[5mC]*e[5mC]*dG*dA*dG*dT*dT*d[5mC]*dT*dG*d[5mC]*dA*eG*eG*eA*eG*e[5mC]) [compound 422146]” the “% Inhibition of human Factor 7 mRNA levels” value [4] was 58%.
In the case of “407634 (antisense eG*eT*eG*eA*e[5mC]*dT*dG*d[5mC]*dT*dG*d[5mC]*dA*dG*dG*d[5mC]*eA*eG*eT*e[5mC]*e[5mC]) [compound 407634]”, the “% Inhibition (human Factor 7 mRNA)” value [3] is reported as 24%.
In the case of “407635 (antisense eT*eG*eG*e[5mC]*e[5mC]*d[5mC]*d[5mC]*dA*dG*d[5mC]*dT*dG*dA*d[5mC]*dG*eA*eT*eG*e[5mC]*e[5mC]) [compound 407635]”, the “% Inhibition (human Factor 7 mRNA)” value [3] is reported as 64%.
For “407942 (antisense e[5mC]*eA*e[5mC]*eA*eG*dG*dT*dG*dT*dG*d[5mC]*dG*dG*dA*dG*eG*eA*eG*eA*e[5mC]) [compound 407942]”, the “% Inhibition (human Factor 7 mRNA)” value [3] was 41%.
For “407892 (antisense e[5mC]*e[5mC]*e[5mC]*e[5mC]*eA*dT*dT*d[5mC]*dT*dG*dG*d[5mC]*dA*dT*dG*eG*eA*e[5mC]*eT*eT) [compound 407892]”, the “% Inhibition (human Factor 7 mRNA)” value [3] was 68%.
“422180 (antisense e[5mC]*e[5mC]*eA*d[5mC]*d[5mC]*d[5mC]*dG*d[5mC]*d[5mC]*dG*dG*d[5mC]*dT*d[5mC]*dT*dG*d[5mC]*eT*e[5mC]*eA) [compound 422180]” was tested, and the “% Inhibition of human Factor 7 mRNA levels” value [6] was 54%.
With “416533 (antisense eG*e[5mC]*eA*eT*eT*d[5mC]*dT*dG*dG*dA*d[5mC]*d[5mC]*d[5mC]*dA*dG*eA*eT*eG*eA*e[5mC]) [compound 416533]” the “% Inhibition of human Factor 7 mRNA levels” value [2] was 41%.
With “416511 (antisense eT*eT*eG*e[5mC]*eT*dG*dG*dG*dA*dG*dG*dA*d[5mC]*dG*dA*eG*eG*e[5mC]*e[5mC]*eT) [compound 416511]” the “% Inhibition of human Factor 7 mRNA levels” value [2] was 35%.
For “422250 (antisense e[5mC]*eT*dG*dG*d[5mC]*dT*dG*dA*dG*dG*dA*dG*dA*d[5mC]*dA*eA*eT*eG*eG*eT) [compound 422250]”, the “% Inhibition of human Factor 7 mRNA levels” value [5] was 54%.
